Test results reported in paper PMC6685790 (Nature structural & molecular biology, 2008).
Residue numbers refer to the chain shown, from its start. One block for each molecule: values may come before it.

Columns and labels:
Experiment in all cases: Whole-cell recording of substituted GlyR in HEK cells
Type in all cases: cell-based
GlyR α1^L134A, E157A = biological target: T1, GlyR α1^L134A, E157A (Homo sapiens, UniProt P23415, E185A/L162A)
T1 sequence (P23415 29-457 L162A/E185A): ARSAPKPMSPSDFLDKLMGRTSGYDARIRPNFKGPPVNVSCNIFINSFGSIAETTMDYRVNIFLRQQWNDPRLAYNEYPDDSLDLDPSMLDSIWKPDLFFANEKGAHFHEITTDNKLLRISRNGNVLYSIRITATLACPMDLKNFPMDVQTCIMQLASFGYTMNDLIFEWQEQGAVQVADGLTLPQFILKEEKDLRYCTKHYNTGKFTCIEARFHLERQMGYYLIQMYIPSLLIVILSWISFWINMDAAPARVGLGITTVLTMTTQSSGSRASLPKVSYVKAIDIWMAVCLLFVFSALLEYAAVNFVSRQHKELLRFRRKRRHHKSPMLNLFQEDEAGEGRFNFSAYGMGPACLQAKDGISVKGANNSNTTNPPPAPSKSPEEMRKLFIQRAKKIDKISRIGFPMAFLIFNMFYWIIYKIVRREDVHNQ

GlyR α1^L117A = biological target: T2, GlyR α1^L117A (Homo sapiens, UniProt P23415, L145A)
T2 sequence (P23415 29-457 L145A): T1 sequence (P23415 29-457 L162A/E185A) with L117A, A134L, A157E

GlyR α1^I62A = biological target: T3, GlyR α1^I62A (Homo sapiens, UniProt P23415, I90A)
T3 sequence (P23415 29-457 I90A): T1 sequence (P23415 29-457 L162A/E185A) with I62A, A134L, A157E

GlyR α1^V60A = biological target: T4, GlyR α1^V60A (Homo sapiens, UniProt P23415, V88A)
T4 sequence (P23415 29-457 V88A): T1 sequence (P23415 29-457 L162A/E185A) with V60A, A134L, A157E

GlyR α1^F100A = biological target: T5, GlyR α1^F100A (Homo sapiens, UniProt P23415, F128A)
T5 sequence (P23415 29-457 F128A): T1 sequence (P23415 29-457 L162A/E185A) with F100A, A134L, A157E

GlyR α1^F99A,E157A = biological target: T6, GlyR α1^F99A,E157A (Homo sapiens, UniProt P23415, E185A/F127A)
T6 sequence (P23415 29-457 F127A/E185A): T1 sequence (P23415 29-457 L162A/E185A) with F99A, A134L

[1] = direct activation without glycine
[2] = read-out: Zn^2+ Inhibition IC50, modulation of EC50 glycine currents
[3] = read-out: Zn^2+ Activation EC50, direct activation without glycine

- Reduction in sensitivity to glycine (GlyR α1^L134A, E157A; α1^L134A with extra mutation E157A vs α1^L134A): 50 fold
- Threshold concentration for glycine (GlyR α1^L134A, E157A; α1^L134A, E157A): > 100 µM
- Glycine Imax (GlyR α1^L117A): 4.4 ± 0.7 nA
- Glycine nH (GlyR α1^L117A; Hill slope): 1.67 ± 0.1
- Glycine Imax (GlyR α1^I62A): 7.6 ± 0.7 nA
- Glycine nH (GlyR α1^I62A; Hill slope): 2.5 ± 0.1
- Glycine Imax (GlyR α1^V60A): 6.5 ± 1.3 nA
- Glycine nH (GlyR α1^V60A; Hill slope): 3.5 ± 0.8
- Glycine Imax (GlyR α1^F100A): 4.5 ± 0.7 nA
- Glycine nH (GlyR α1^F100A; Hill slope): 1.8 ± 0.2
- Activation by glycine (GlyR α1^F99A,E157A; α1^F99A,E157A, up to 10 mM glycine): insensitive
Structure (SMILES): NCC(=O)O [Glycine, glycine]

- Reduction in sensitivity to Zn^2+ activation (GlyR α1^L134A, E157A; α1^L134A, E157A vs α1^L134A): 3 fold
- Zn^2+ Activation EC50 (GlyR α1^L117A; [1]): None
- IC50 (GlyR α1^L117A; [2]): 13.3 ± 3.3 µM
- Zn^2+ Activation Relative efficacy (% Gly Imax) (GlyR α1^I62A; maximal activation with 1 mM Zn^2+, as percentage of maximal glycine response in same cell): 3 ± 1 % Gly Imax
- EC50 (GlyR α1^I62A; [3]): > 1000 µM
- IC50 (GlyR α1^I62A; [2]): > 1000 µM
- Zn^2+ Activation EC50 (GlyR α1^V60A; [1]): None
- IC50 (GlyR α1^V60A; [2]): 10.1 ± 1.26 µM
- Zn^2+ Activation nH (GlyR α1^F100A; Hill slope): 0.5 ± 0.1
- Zn^2+ Activation Relative efficacy (% Gly Imax) (GlyR α1^F100A; maximal Zn^2+ response as percentage of maximal glycine response in same cell): 7 ± 4 % Gly Imax
- EC50 (GlyR α1^F100A; [3]): 9.2 ± 0.6 µM
- IC50 (GlyR α1^F100A; [2]): > 1000 µM
- Decrease in sensitivity to Zn^2+ activation (GlyR α1^F99A,E157A; E157A on α1^F99A background vs α1^F99A): 3 fold
- Zn^2+ sensitivity compared with α1^F99A (GlyR α1^F99A,E157A; α1^F99A,E157A, Zn^2+ activation): identical
Structure (SMILES): [Zn+2] [Zn^2+]
